Measurements taken from patent US20060189641A1, “Novel 6-phenlyphenanthridines” (priority 2003, published 2006).

Test system: PDE4
Assay: Inhibition of the PDE4 activity (cytosol from human neutrophils, [3H]cAMP hydrolysis)
Format: biochemical
Design: unit not given here
Settings: 0.5 μM cAMP, Motapizone 1 μM to suppress PDE3
Experimental: Method for Measuring Inhibition of PDE4 Activity
PDE4 activity was determined as described by Thompson et al. (Adv Cycl Nucl Res 10:69-92, 1979) with some modifications (Bauer and Schwabe, Naunyn-Schmiedeberg's Arch Pharmacol 311:193-198, 1980). At a final assay volume of 200 μl (96well microtiter plates) the assay mixture contained 20 mM Tris (pH 7.4), 5 mM MgCl2, 0.5 μM cAMP, [^3H]cAMP (about 30,000 cpm/assay), the test compound and an aliquot of cytosol from human neutrophilis which mainly contains PDE4 activity as described by Schudt et al. (Naunyn-Schmledeberg's Arch Pharmacol 344:682-690, 1991); the PDE3-specific inhibitor Motapizone (1 μM) was included to suppress PDE3 activity originating from contaminating platelets. Serial dilutions of the compounds were prepared in DMSO and further diluted 1:100 (v/v) in the assays to obtain the desired final concentrations of the inhibitors at a DMSO concentration of 1% (v/v) which by itself only slightly affected PDE4 activity.
After preincubation for 5 min at 37° C., the reaction was started by the addition of substrate (cAMP) and the assays were incubated for further 15 min at 37° C. 50 μl of 0.2 N HCl was added to stop the reaction and the assays were left on ice for about 10 min. Following incubation with 25 μg 5′-nucleotidase (Crotalus atrox snake venom) for 10 min at 37° C., the assays were loaded on QAE Sephadex A-25 (1 ml bed volume). The columns were eluted with 2 ml of 30 mM ammonium formulate (pH 6.0) and the […] for radioactivity. Results were corrected for blank values (measured in the presence of denatured protein) which were below 5% of total radioactivity. […] The IC50 -values for the compounds according to the invention for the inhibition of the PDE4 activity were determined from the concentration-inhibition curves by nonlinear-regression.

Compound | −log IC50, Inhibition of the PDE4 activity
COc1cc2c(cc1OC)C1CCCCC1N=C2c1ccc(C(=NO)c2ccccc2)cc1 [Compound 2, 1-[4-((4aR,10bR)-8,9-Dimethoxy-1,2,3,4a,10b-hexahydrophenanthridin-6-yl}phenyl]-1-phenyl-methanone oxime] | 9.04
COc1cc2c(cc1OC)[C@H]1CCCC[C@H]1N=C2c1ccc(C(C)=NOCc2ccc([N+](=O)[O-])cc2)cc1 [Compound 5, 1-[4-((4aR,10bR)-8,9-Dimethoxy-1,2,3,4,4a,10b-hexahydrophenanthridin-6-yl}-phenyl]-ethanone O-(4-nitrobenzyl)-oxime] | 8.41
COc1cc2c(cc1OC)C1CCCCC1N=C2c1ccc(C(C)=NOc2ccccc2)cc1 [Compound 7, 1-[4-((4aR,10bR)-8,9Dimethoxy-1,2,3,4,a,10b-hexahydrophenanthridin-6-yl}-phenyl]ethanone O-phenyloxime] | 8.26
COc1ccccc1NC(=O)CON=C(C)c1ccc(C2=N[C@@H]3CCCC[C@@H]3c3cc(OC)c(OC)cc32)cc1 [Compound 11, 2-{1-[4-((4aR,10bR)-8,9-Dimethoxy-1,2,3,4,4a,10b-hexahydrophenanthridin-6-yl)-phenyl]ethylideneaminooxy}-N-(2-methoxyphenyl)-acetamide] | 8.87
COc1cc2c(cc1OC)C1CCCCC1N=C2c1ccc(C(C)=NOCC(=O)NCc2ccc(Cl)cc2)cc1 [Compound 12, N-(4-Chlorobenzyl)-2-{1-[4-((4aR,10bR)-8,9-dimethoxy-1,2,3,4,a,10b-hexahydrophenanthridin-6-yl)-phenyl]-ethylideneaminooxy}-acetamide] | 8.48
COc1cc2c(cc1OC)[C@H]1CCCC[C@H]1N=C2c1ccc(C(C)=NOCc2cccc(C(F)(F)F)c2)cc1 [Compound 14, 1-[4-((4aR,10bR)-8,9-Dimethoxy-1,2,3,4,4a,10b-hexahydrophenanthridin-6-yl}-phenyl]-ethanone O-(3-trifluoromethylbenzyl)-oxime] | 8.43
COc1cc2c(cc1OC)[C@H]1CCCC[C@H]1N=C2c1ccc(C(C)=NOCCOc2ccccc2)cc1 [Compound 19, 1-[4-((4aR,10bR)-8,9-Dimethoxy-1,2,3,4,4a,10b-hexahydrophenanthridin-6-yl)-phenyl]-ethanone O-(2-phenoxyethyl)-oxime] | 8.73
COc1cc2c(cc1OC)[C@H]1CCCC[C@H]1N=C2c1ccc(C(C)=NOCCOc2cccc(C(F)(F)F)c2)cc1 [Compound 20, 1-[4-((4aR,10bR)-8,9-Dimethoxy-1,2,3,4,4a,10b-hexahydrophenanthridin-6-yl}-phenyl]-ethanone O-[2-(3-trifluoromethylphenoxy)-ethyl]-oxime] | 8.00
COc1cc2c(cc1OC)[C@H]1CCCC[C@H]1N=C2c1ccc(C(C)=NOCC(=O)N2CCOCC2)cc1 [Compound 24, 2-{1-[4-((4aR,10bR)-8,9-Dimethoxy-1,2,3,4,4a,10b-hexahydrophenanthridin-6-yl)-phenyl]-ethylideneaminooxy}-1-morpholin-4-yl-ethanone] | 8.25
COc1cc2c(cc1OC)C1CCCCC1N=C2c1cccc(C(C)=NO)c1 (centres unmarked) [Compound 25] | 8.33
COc1cc2c(cc1OC)[C@H]1CCCC[C@H]1N=C2c1cccc(C(=NO)c2ccccc2)c1 [Compound 26, 1-[3-((4aR,10bR)-8,9-Dimethoxy-1,2,3,4,4a,10b-hexahydrophenanthridin-6-yl}-phenyl]-1-phenyl-methanone oxime] | 9.27

Results, then the compound that gave them:

−log IC50, Inhibition of the PDE4 activity | Compound
9.43 | COc1cc2c(cc1OC)[C@H]1CCCC[C@H]1N=C2c1ccc(C(C)=NO)cc1 [Compound 1, 1-[4-((4aR,10bR)-8,9-Dimethoxy-1,2,3,4,4a,10b-hexahydrophenanthridin-6-yl}-phenyl]-ethanone oxime]
8.20 | COc1cc2c(cc1OC)[C@H]1CCCC[C@H]1N=C2c1ccc(C(C)=NOCc2ccccc2)cc1 [Compound 4, 1-[4-((4aR,10bR)-8,9-Dimethoxy-1,2,3,4,4a,10b-hexahydrophenanthridin-6-yl}-phenyl]-ethanone O-benzyloxime]
8.08 | CCON=C(C)c1ccc(C2=N[C@@H]3CCCC[C@@H]3c3cc(OC)c(OC)cc32)cc1 [Compound 6, 1-[4-((4aR,10bR)-8,9-Dimethoxy-1,2,3,4,4a,10b-hexahydrophenanthridin-6-yl}-phenyl]ethanone O-ethyloxime]
8.01 | COc1cc2c(cc1OC)[C@H]1CCCC[C@H]1N=C2c1ccc(C(C)=NOCC(C)C)cc1 [Compound 8, 1-[4-((4aR,10bR)-8,9-Dimethoxy-1,2,3,4,4a,10b-hexahydrophenanthridin-6yl)-phenyl]-ethanone O-isobutyloxime]
8.41 | COc1cc2c(cc1OC)C1CCCCC1N=C2c1ccc(C(C)=NOCc2cccc(Cl)c2)cc1 (centres unmarked) [Compound 13]
8.33 | COc1ccccc1CON=C(C)c1ccc(C2=N[C@@H]3CCCC[C@@H]3c3cc(OC)c(OC)cc32)cc1 [Compound 15, 1-[4-((4aR,10bR)-8,9-Dimethoxy-1,2,3,4,4a,10b-hexahydrophenanthridin-6-yl}-phenyl]-ethanone O-(2-methoxy-benzyl)-oxime]
8.36 | COc1cc2c(cc1OC)[C@H]1CCCC[C@H]1N=C2c1ccc(C(C)=NOCc2ccc(F)cc2)cc1 [Compound 16, 1-[4-((4aR,10bR)-8,9-Dimethoxy1,2,3,4,4a,10b-hexahydrophenanthridin-6-yl}-phenyl]-ethanone O-(4-flurobenzyl)-oxime]
8.47 | COc1cc2c(cc1OC)[C@H]1CCCC[C@H]1N=C2c1ccc(C(C)=NOCc2cccc(F)c2)cc1 [Compound 17]
8.73 | COc1cc2c(cc1OC)[C@H]1CCCC[C@H]1N=C2c1ccc(C(C)=NOCc2ccccc2Cl)cc1 [Compound 18, 1-[4-((4aR,10bR)-8,9-Dimethoxy-1,2,3,4,4a,10b-hexahydrophenanthridin-6-yl}-phenyl]-ethanone O-(2-chlorobenzyl)-oxime]
8.62 | COc1cc2c(cc1OC)[C@H]1CCCC[C@H]1N=C2c1ccc(C(C)=NOCc2ccc(Cl)cc2)cc1 [Compound 22, 1-[4-((4aR,10bR)-8,9-Dimethoxy-1,2,3,4,4a,10b-hexahydrophenanthridin-6-yl)-phenyl]-ethanone O-(4-chlorobenzyl)-oxime]
8.75 | COc1ccc(CON=C(C)c2ccc(C3=NC4CCCCC4c4cc(OC)c(OC)cc43)cc2)cc1 [Compound 23, 1-[4-((4aR,10bR)-8,9-Dimethoxy-1,2,3,4,4a,10b-hexahydrophenanthridin-6}-phenyl]-ethanone O-(4-methoxybenzyl)-oxime]

Test system: not given
Assay: not given
Settings: not given

melting point [°C] | Compound
189 to 192 | COc1cc2c(cc1OC)[C@H]1CCCC[C@H]1N=C2c1ccc(C(C)=NO)cc1 [Compound 1, 1-[4-((4aR,10bR)-8,9-Dimethoxy-1,2,3,4,4a,10b-hexahydrophenanthridin-6-yl}-phenyl]-ethanone oxime]
